Assay results as given in ChEMBL document CHEMBL3421542, “Pure Diastereomers of a Tranylcypromine-Based LSD1 Inhibitor: Enzyme Selectivity and In-Cell Studies” (ACS Med Chem Lett, 2015).

What was measured:
[1] = biological target: T1, MAO-B (amine oxidase [flavin-containing] B) (Homo sapiens, UniProt P27338); test: Inhibition of human recombinant MAOB expressed in Pichia pastoris at 100 uM incubated for 15 mins prior to substrate addition measured after 30 mins by luminescence assay
T1 sequence (P27338 whole entry): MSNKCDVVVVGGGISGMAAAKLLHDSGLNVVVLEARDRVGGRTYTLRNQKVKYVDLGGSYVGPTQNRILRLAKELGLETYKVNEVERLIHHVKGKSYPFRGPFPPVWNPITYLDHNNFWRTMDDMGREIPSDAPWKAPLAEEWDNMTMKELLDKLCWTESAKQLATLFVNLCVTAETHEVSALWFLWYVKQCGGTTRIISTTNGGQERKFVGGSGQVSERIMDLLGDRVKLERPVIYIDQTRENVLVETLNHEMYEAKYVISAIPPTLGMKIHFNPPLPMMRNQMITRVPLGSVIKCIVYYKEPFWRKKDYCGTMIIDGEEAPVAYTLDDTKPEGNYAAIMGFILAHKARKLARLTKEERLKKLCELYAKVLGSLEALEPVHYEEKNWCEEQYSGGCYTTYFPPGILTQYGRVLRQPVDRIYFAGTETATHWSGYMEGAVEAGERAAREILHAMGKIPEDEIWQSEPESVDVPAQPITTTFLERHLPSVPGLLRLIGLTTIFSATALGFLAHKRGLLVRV

[2] = biological target: T2, Amine oxidase [flavin-containing] B (Homo sapiens, UniProt P27338); test: Inhibition of human recombinant MAOB expressed in Pichia pastoris incubated for 15 mins prior to substrate addition measured after 30 mins by luminescence assay
T2 sequence (P27338 whole entry): T1 sequence (P27338 whole entry)

[3] = Induction of cell differentiation in human NB4 cells assessed as upregulation of CD11B expression; type: functional, cell-based; conditions: NB-4
[4] = Induction of cell differentiation in mouse acute promyelocytic leukemic cells; type: functional
[5] = Inhibition of colony formation in mouse acute promyelocytic leukemic cell at 0.25 uM after 7 days by colony forming unit assay; type: functional; conditions: 168 h

SMILES | inhibition at 0.5 h, 100 µM [1] [%] | IC50 [2] [µM] | Activity [3] [%] | Activity [4] [%] | inhibition at 0.25 µM [5] [%]
N[C@H]1C[C@@H]1c1ccc(NC(=O)[C@@H](Cc2ccccc2)NC(=O)OCc2ccccc2)cc1 | 14 | – | – | – | –
N[C@H]1C[C@@H]1c1ccc(NC(=O)[C@H](Cc2ccccc2)NC(=O)OCc2ccccc2)cc1 | – | 42.6 | – | – | –
Cl.NC1CC1c1ccc(NC(=O)C(Cc2ccccc2)NC(=O)OCc2ccccc2)cc1 (mixture of isomers) | 40 | – | 77.9 | 77.9 | 36.8
N[C@@H]1C[C@H]1c1ccc(NC(=O)[C@H](Cc2ccccc2)NC(=O)OCc2ccccc2)cc1 | – | 32 | – | – | 59.2
N[C@@H]1C[C@H]1c1ccc(NC(=O)[C@@H](Cc2ccccc2)NC(=O)OCc2ccccc2)cc1 | 33 | – | – | – | 59.6
